{"source": "patent US11155573B2", "about": "“Bile salt hydrolase probe and method of making and using the same” (Battelle Memorial Institute, priority 2017, dated 2021)", "molecules": {"B1": {"name": "bile salt hydrolase (BSH), purified (Lactiplantibacillus plantarum WCFS1) (protein)", "chain": "MCTAITYQSYNNYFGRNFDYEISYNEMVTITPRKYPLVFRKVENLDHHYAIIGITADVESYPLYYDAMNEKGLCIAGLNFAGYADYKKYDADKVNITPFELIPWLLGQFSSVREVKKNIQKLNLVNINFSEQLPLSPLHWLVADKQESIVIESVKEGLKIYDNPVGVLTNNPNFDYQLFNLNNYRALSNSTPQNSFSEKVDLDSYSRGMGGLGLPGDLSSMSRFVRAAFTKLNSLSMQTESGSVSQFFHILGSVEQQKGLCEVTDGKYEYTIYSSCCDMDKGVYYYRTYDNSQINSVSLNHEHLDTTELISYPLRSEAQYYAVN"}}, "key": {"[1]": {"system": "purified BSH", "experiment": "GCA and iodoacetamide competition assay", "type": "biochemical", "details": "CA-AMCA 150 μM, BSH 10 μg/ml"}, "[2]": {"system": "endogenously expressed BSH in L. plantarum lysate", "experiment": "Lactobacillus plantarum lysate assay", "type": "biochemical", "details": "CAPE 2 mM", "method": "Reaction volumes of 100 μL were used in Microfluor1 black flat bottom microtiter 96 well plates (Thermo Scientific). […] A 50 μL solution of probe (300 μM) in buffer with 5% DMSO was then added to initiate the reaction. Reactions were immediately placed in a plate reader (SPECTRAmax Gemini XS) pre-warmed to 37° C., and reaction progress was monitored at 450 nm (excitation 350 nm) for 20 minutes."}, "[3]": {"system": "L. plantarum cells", "experiment": "Whole-cell Lactobacillus plantarum assay", "type": "cell-based", "details": "varying amount of CAPE", "experimental": "A starter culture was created by inoculation of 5 ml MRS broth from a L. plantarum colony grown on MRS agar. The starter culture was incubated overnight at 37° C. overnight. The 5 ml starter culture was then added to 95 ml fresh MRS broth and grown until the optical density at 600 nm reached 0.7. At that point, the cells were pelleted via centrifugation. The cell pellet was resuspended in 15 ml PBS, and centrifuged. The cells were additionally washed with PBS and pelleted once more. The resulting pellet was suspended in 380 μl PBS. The cell suspension was then serially diluted two-fold. […]"}, "[4]": {"target": "T1, purified recombinant Lactobacillus plantarum BSH (Lactiplantibacillus plantarum, UniProt Q06115)", "T1 sequence (Q06115 1-324)": "B1 chain", "experiment": "BA-ABP labeling of purified BSH", "type": "binding", "experimental": "Binding of BA-ABP to purified recombinant Lactobacillus plantarum BSH was assessed through incubation with probe in buffer (FIG. 18A). […] Additionally, labeling was time-dependent."}, "[5]": {"target": "T2, BSH (Lactiplantibacillus plantarum, UniProt Q06115)", "T2 sequence (Q06115 1-324)": "B1 chain", "experiment": "BA-ABP labeling of purified BSH added to Escherichia coli bacterial lysate", "type": "binding", "experimental": "(§1) The BSH probes were then assayed for retention of function in the presence of a complex cell lysate. Purified BSH was added to an organism that is not known to endogenously express BSH to precisely control this variable. […] After confirming that the BSH-ABP is capable of labeling BSH in complex biological mixtures, application of the probe was assayed for detection of endogenous BSH. L. plantarum was used because its expression of BSH is well-documented, and this organism is found in many popular over-the-counter probiotic formulations for support of healthy cholesterol levels."}, "[6]": {"system": "BSH", "experiment": "Probe labeling of endogenous BSH in L. plantarum lysate", "type": "binding, Lactobacillus plantarum", "experimental": "as §1"}, "[7]": {"system": "BSH", "experiment": "In vivo probe labeling in L. plantarum", "type": "cell-based, Lactobacillus plantarum", "experimental": "as §1"}, "[8]": {"system": "human gut microbiome lysate", "experiment": "BSH ABP labeling in human gut microbiome lysate", "type": "binding", "experimental": "The probes were assayed for activity in human gut microbiome extracts."}, "[9]": {"system": "purified BSH", "details": "read-out: Michaelis-Menten constant (Km); turnover by purified BSH, 0.1 M sodium phosphate pH 6, 37° C.", "method": "Reaction volumes of 100 μL were used in Microfluor1 black flat bottom microtiter 96 well plates (Thermo Scientific). 50 μL of enzyme (40 μg/ml) in buffer (0.1 M sodium phosphate, pH=6) was added to each well. […] Reactions were immediately placed in a plate reader (SPECTRAmax Gemini XS) pre-warmed to 37° C., and reaction progress was monitored at 450 nm (excitation 350 nm) for 20 minutes. Reactions had final concentrations of 20 μg/ml enzyme, 0.1 M sodium phosphate (pH 6), and 2.5% DMSO.\nThe initial rate data was used for determination of Km values. For Km determination, the kinetic values were obtained directly from nonlinear regression of substrate-velocity curves in the presence of varying concentrations of BA-AMCA. The equation Y=(Vmax*X)/(Km+X*(1+X/Ki)), X=substrate concentration (μM) and Y=enzyme velocity (RFU/s); was used in the nonlinear regression. Each BA-AMCA Km value was determined using at least three independent experiments."}, "[10]": {"substrate": "Cc1c(CC(=O)O)c(=O)oc2cc(NC(=O)CC[C@@H](C)[C@H]3CC[C@H]4C5[C@H](O)C[C@@H]6C[C@H](O)CC[C@]6(C)[C@H]5C[C@H](O)[C@]34C)ccc12", "experiment": "purified protein, by the assay type", "type": "biochemical", "details": "other: individual replicate, purified BSH 20 μg/ml, 0.1 M sodium phosphate pH 6, 2.5% DMSO, 37° C., 20 min, Ex 350/Em 450 nm", "from_the_text": "Fluorescent signals for substrate turnover could be detected with as low as mid-nanomolar enzyme concentrations, which is considerably less enzyme when compared to micromolar concentrations required for conventional ninhydrin assays with purified BSH. […] Furthermore, robust signals could be reliably observed in the low micromolar substrate concentration range before any indication of substrate inhibition. Product formation was additionally confirmed through coupling of the BSH reaction to a secondary HPLC-based assay."}}, "data": [{"molecule": "C[C@H](CCC(=O)NCC(=O)O)[C@H]1CC[C@H]2[C@@H]3[C@H](O)C[C@@H]4C[C@H](O)CC[C@]4(C)[C@H]3C[C@H](O)[C@]12C", "note": "[glycocholic acid]", "values": [{"measurement": "effect on CA-AMCA turnover by BSH", "setting": "[1]; GCA 10 mM", "value": "Attenuated activity"}]}, {"molecule": "O=C(/C=C/c1ccc(O)c(O)c1)OCCc1ccccc1", "note": "[CAPE, caffeic acid phenethyl ester]", "values": [{"measurement": "effect on CA-AMCA turnover in L. plantarum lysate", "setting": "[2]", "value": "Activity was not observed"}, {"measurement": "effect on probe velocities in whole-cell suspension", "setting": "[3]", "value": "probe velocities were consistent with the amount of CAPE added"}]}, {"molecule": "NC(=O)CI", "note": "[iodoacetamide, reference compound]", "values": [{"measurement": "effect on CA-AMCA turnover by BSH", "setting": "[1]; IAA 12 mM", "value": "completely ablated substrate turnover"}, {"measurement": "effect of pre-treatment on BA-ABP binding to BSH", "setting": "[4]; pre-treatment before probe", "value": "Binding was ablated"}]}, {"molecule": "C#CCNC(=O)C=CCC[C@@H](C)[C@H]1CC[C@H]2C3[C@H](O)C[C@@H]4C[C@H](O)CC[C@]4(C)[C@H]3C[C@H](O)[C@]12C", "note": "(stereo partly drawn) [BA-ABP]", "values": [{"measurement": "labeling of purified BSH, time dependence", "setting": "[4]", "value": "time-dependent"}, {"measurement": "labeling of purified BSH upon addition of free bile salts", "setting": "[4]; competition with native substrate", "value": "could be attenuated"}, {"measurement": "labeling of purified BSH, dose dependence", "setting": "[4]; incubation with probe in buffer", "value": "dose-dependent"}, {"measurement": "fluorescent gel labeling, BSH added to lysate of organism not expressing BSH", "setting": "[5]", "value": "a fluorescent band that is consistent with BSH labeling, along with several other unknown targets"}, {"measurement": "fluorescence imaging of labeling in L. plantarum lysate", "setting": "[6]", "value": "a band consistent with BSH, along with several others"}, {"measurement": "labeling in vivo in L. plantarum", "setting": "[7]", "value": "Labeling in vivo was also confirmed"}, {"measurement": "labeling in gut microbiome lysate", "setting": "[8]", "value": "labeling was observed"}]}, {"molecule": "Cc1c(CC(=O)O)c(=O)oc2cc(NC(=O)CC[C@@H](C)[C@H]3CC[C@H]4C5[C@H](O)C[C@@H]6C[C@H](O)CC[C@]6(C)[C@H]5C[C@H](O)[C@]34C)ccc12", "note": "(stereo partly drawn) [CA-AMCA]", "values": [{"measurement": "Km", "setting": "[9]", "value": 26, "unit": "µM"}]}, {"molecule": "B1", "values": [{"measurement": "Km", "setting": "[10]; FIG. 8B", "value": 31.48, "unit": "µM"}, {"measurement": "Km", "setting": "[10]; FIG. 8C", "value": 22.57, "unit": "µM"}]}]}
